The subject of data set [1] is Bacillus cereus. Description: MIC, doubling dilution in 96-well microtitre plate. The data set is classed as cell-based. The protocol:
(§1) The compound was tested as follows. […] The wells were inoculated with organism ([…] of medium containing 10^6 cfu/mL) and the plates were incubated at 37° C. overnight. Where growth of organism occurred this was observed as a small button when viewed from underneath the plate. The MIC was determined as the lowest concentration inhibiting growth.

In data set [2] the test system is Bacillus megarerium. Description: MIC, doubling dilution in 96-well microtitre plate. The data set is classed as cell-based. The protocol:
as §1

In another data set the test system is Bacillus subtilis. In words: MIC, doubling dilution in 96-well microtitre plate. In kind it is cell-based. How it is done: as §1
Data set [3] concerns Citrobacter diversus 2046E. Description: MIC, doubling dilution in 96-well microtitre plate. In kind it is cell-based. The protocol:
as §1

The next data set relates to Citrobacter freundii. In words: MIC, doubling dilution in 96-well microtitre plate. The data set is classed as cell-based. The protocol: as §1
For data set [4], the system named is Enterobacter cloacae ATCC 13047. Description: MIC, doubling dilution in 96-well microtitre plate. In kind it is cell-based. How it is done:
as §1

For data set [5], the system named is Enterococcus faecalis NCTC 5957. In words: MIC, doubling dilution in 96-well microtitre plate. The data set is classed as cell-based. The protocol: as §1
Another data set has as its system Enterococcus faecium. Description: MIC, doubling dilution in 96-well microtitre plate. The data set is classed as cell-based. The following applies: Enterococcus faecium ATCC 10541. How it is done: as §1
Data set [6] concerns Escherichia coli olli-blue. Description: MIC, doubling dilution in 96-well microtitre plate. The data set is classed as cell-based. The protocol:
as §1

The subject of the next data set is Hafnia alvei. In words: MIC, doubling dilution in 96-well microtitre plate. In kind it is cell-based. How it is done: as §1
Data set [7] deals with Klebsiella pneumoniae ATCC 33495. In words: MIC, doubling dilution in 96-well microtitre plate. In kind it is cell-based. The protocol: as §1
Another data set relates to Micrococcus luteus. Description: MIC, doubling dilution in 96-well microtitre plate. In kind it is cell-based. How it is done:
as §1

Data set [8] deals with Micrococcus roseus. In words: MIC, doubling dilution in 96-well microtitre plate. The data set is classed as cell-based. How it is done: as §1
For the next data set, the system named is Moraxella catarrhalis. Description: MIC, doubling dilution in 96-well microtitre plate. In kind it is cell-based. How it is done:
as §1

Data set [9] deals with Proteus mirabilis NCTC 5887. Description: MIC, doubling dilution in 96-well microtitre plate. In kind it is cell-based. The protocol: as §1
The subject of data set [10] is Pseudomonas aeruginosa ATCC 15692 (PA01). Description: MIC, doubling dilution in 96-well microtitre plate. The data set is classed as cell-based. The protocol: as §1
In another data set the test system is Salmonella Cambridge. Description: MIC, doubling dilution in 96-well microtitre plate. In kind it is cell-based. How it is done:
as §1

The next data set deals with Salmonella arizonae. Description: MIC, doubling dilution in 96-well microtitre plate. In kind it is cell-based. How it is done:
as §1

In another data set the test system is Salmonella banana. In words: MIC, doubling dilution in 96-well microtitre plate. In kind it is cell-based. The protocol:
as §1

In the next data set the test system is Salmonella enteriditis. Description: MIC, doubling dilution in 96-well microtitre plate. In kind it is cell-based. The protocol:
as §1

Data set [11] has as its system Staphylococcus aureus (MRSA) 96-7475. In words: MIC, doubling dilution in 96-well microtitre plate. The data set is classed as cell-based. How it is done:
as §1

Data set [12] deals with Staphylococcus aureus NCTC 10788. Description: MIC, doubling dilution in 96-well microtitre plate. In kind it is cell-based. How it is done: as §1
Data set [13] deals with Staphylococcus aureus NCTC 6571. In words: MIC, doubling dilution in 96-well microtitre plate. The data set is classed as cell-based. How it is done: as §1
The test system of data set [14] is Staphylococcus aureus W11 MRSA. Description: MIC, doubling dilution in 96-well microtitre plate. In kind it is cell-based. How it is done:
as §1

Data set [15] has as its system Staphylococcus epidermidis NCTC 11047. Description: MIC, doubling dilution in 96-well microtitre plate. The data set is classed as cell-based. How it is done: as §1
Data set [16] relates to Streptococcus bovis NCTC 11436. Description: MIC, doubling dilution in 96-well microtitre plate. The data set is classed as cell-based. The protocol:
as §1

In another data set the test system is S. aureus. In words: MIC, agar dilution, multipoint inoculator. In kind it is cell-based, Staphylococcus aureus. To be noted: Staphylococcus aureus, upper value of MIC reading, read-out: MIC. The essentials:
(§2)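 Agar dilution on Mueller Hinton agar; a multipoint inoculator delivered 10^4 colony forming units per spot, and the MIC was taken for each compound.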
On the technique in general: In agar dilution the substance is mixed into plates at graded concentrations.

The test system of a further data set is E. faecalis. In words: MIC, agar dilution, multipoint inoculator. The data set is classed as cell-based. To be noted: Enterococcus faecalis, upper value of MIC reading, read-out: MIC. The essentials: as §2
For another data set, the system named is S. haemolyticus. Description: MIC, agar dilution, multipoint inoculator. In kind it is cell-based. The following applies: Staphylococcus haemolyticus, 18 h; S. haemolyticus Isolate 1; upper value of MIC reading; read-out: MIC. The method in brief:
as §2

The subject of data set [17] is vancomycin resistant enterococci. Description: MIC, agar dilution, multipoint inoculator. In kind it is cell-based. The following applies: one value printed for the seven vancomycin resistant enterococci cultures of Table 5; read-out: MIC. How it is done:
(§3) This activity was measured using a multipoint inoculator method as follows. The MIC for each compound was measured using an agar dilution method (Onda, H., et al., Int. J. Antimicrob. Agents. 18, 263 (2001)) (Mueller Hinton agar) by means of a multipoint inoculator delivering 10^4 colony forming units per spot.
It will be noted that compound 4PYcq was active against all strains of MRSA as well as all other Gram positive bacteria. For this reason it was further tested against some vancomycin resistant enterococci, using the multipoint inoculator method described above. It can be seen from Table 5 that the high level activity was retained.

Data set [18] deals with Bacillus cereus. In words: MIC, agar dilution, multipoint inoculator. The data set is classed as cell-based. The protocol:
as §3
(§4) 4Pycq was also tested against the following bacteria, using the multipoint inoculator method.

For data set [19], the system named is Bacillus megarerium. Description: MIC, agar dilution, multipoint inoculator. The data set is classed as cell-based. How it is done:
as §3, §4

The next data set concerns Bacillus polymyxa. In words: MIC, agar dilution, multipoint inoculator. The data set is classed as cell-based. The following applies: Paenibacillus polymyxa. The protocol:
as §3, §4

In data set [20] the test system is Micrococcus roseus. Description: MIC, agar dilution, multipoint inoculator. In kind it is cell-based. The following applies: Kocuria rosea. How it is done:
as §3, §4

Data set [21] has as its system human mononuclear leucocytes (MNL, white blood cells). In words: direct leucocyte toxicity, tryptan blue exclusion, 18 hours. In kind it is cell-based. The protocol: The in vitro assay used human mononuclear leucocytes (MNL, white blood cells) which were incubated with the test compound for 18 hours and cell death determined by tryptan blue exclusion (tryptan blue is a dye, which stains dead cells, whilst living cells extrude it).
The toxicity of 4PYcq and the aldehyde cq and pyridine-4-carboxamidrazone precursors were assessed using the same in vitro assay with human mononuclear leucocytes as that described above. The toxicity of related compounds, 2-hydroxybenzylidene-pyridine-2-carboxamidrazone 4PYbw and benzylidenepyridine-2-carboxamidrazone 4PYaa were also examined.

Usually MIC stands for the least concentration at which growth counts as inhibited.

Converted amounts (≈) assume the structure as drawn. Where two headings read alike, the source gives them in different places.

As to `NC(=NN=Cc1ccc([N+](=O)[O-])o1)c1cc[n+]([O-])cc1` (mixture of isomers) [Compound 4PYOfi], the MIC in the data set on Bacillus cereus [1] was 8 to 16 µg/mL; with Bacillus megarerium [2], 8 to 16 µg/mL; with Bacillus subtilis, 8 to 16 µg/mL; in [3], 32 to 64 µg/mL; with Citrobacter freundii it was 32 to 64 µg/mL; in data set [4] it was 32 to 64 µg/mL. The MIC in [5] was 4 to 8 µg/mL; in the data set on Enterococcus faecium it was 8 to 16 µg/mL; in data set [6], 16 to 32 µg/mL; with Hafnia alvei, 32 to 64 µg/mL; in data set [7] it was 32 to 64 µg/mL; with Micrococcus luteus, 8 to 16 µg/mL. In addition, the MIC in the data set on Micrococcus roseus [8] fell in the range of 8 to 16 µg/mL; in the data set on Moraxella catarrhalis, 16 to 32 µg/mL; in data set [9], 32 to 64 µg/mL; in data set [10], 32 to 64 µg/mL; in the data set on Salmonella Cambridge, 16 to 32 µg/mL; in the data set with Salmonella arizonae it was 16 to 32 µg/mL. Moreover, the MIC was 4 to 8 µg/mL with Salmonella banana; 32 to 64 µg/mL in the data set with Salmonella enteriditis; 4 to 8 µg/mL in data set [11]; 4 to 8 µg/mL in data set [12]; 4 to 8 µg/mL in [13]; 4 to 8 µg/mL in data set [14]. The MIC in data set [15] lay within 2 to 4 µg/mL; in data set [16], 4 to 8 µg/mL.
In the case of `CC(C)(C)c1cc(/C=N/N=C(\N)c2ccncc2)c(O)c(C(C)(C)C)c1` [Compound 4PYcq], the MIC in the data set on S. aureus (18 h, S. aureus Cowan 1) is 4 µg/mL (≈ 11.3 µM); with S. aureus (NCTC6571, 18 h, S. aureus NCTC 6571) it was 4 µg/mL (≈ 11.3 µM); in the data set with S. aureus (NCTC10788, 18 h, S. aureus NCTC 10788) it was 4 µg/mL (≈ 11.3 µM); in the data set with E. faecalis (18 h, E. faecalis EBH1), 4 µg/mL (≈ 11.3 µM); in the data set with E. faecalis (18 h, E. faecalis Isolate 1), 4 µg/mL (≈ 11.3 µM); with E. faecalis (18 h, E. faecalis Isolate 2), 4 µg/mL (≈ 11.3 µM). Moreover, the MIC is 4 µg/mL (≈ 11.3 µM) with E. faecalis (18 h, E. faecalis Isolate 4); 4 µg/mL (≈ 11.3 µM) in the data set with E. faecalis (18 h, E. faecalis Isolate 5); 4 µg/mL (≈ 11.3 µM) with E. faecalis (NCTC5957, 18 h, E. faecalis NCTC 5957); 4 µg/mL (≈ 11.3 µM) with S. haemolyticus; 2 to 4 µg/mL (≈ 5.67 to 11.3 µM) in data set [17]; 2 to 4 µg/mL (≈ 5.67 to 11.3 µM) in the data set with Bacillus cereus [18]. The MIC lay in the range of 0.5 to 1 µg/mL (≈ 1.42 to 2.84 µM) in the data set on Bacillus megarerium [19], 2 to 4 µg/mL (≈ 5.67 to 11.3 µM) in the data set with Bacillus polymyxa and 0.5 to 1 µg/mL (≈ 1.42 to 2.84 µM) against Micrococcus roseus [20]. Besides, in data set [21], the “direct MNL toxicity (in words)” value was “very toxic to leucocytes”.

For the origin of these results see patent US20080096894A1, “Anti-Bacterial Compounds” (ASTON UNIVERSITY, priority 2005, published 2008).
